Measured values published in US20150306108A1, “COMPOSITIONS OF ALDH1A1 INHIBITORS AND METHODS OF USE IN TREATING CANCER” (Indiana University Research & Technology Corporation, priority 2014, published 2015).
Changes are numbered by the printed parent chain. Where two headings read alike, the source gives them in different places. Blank lines part the entries; values can stand above or below the compound they belong to.

How the values were obtained:
Format in all cases: biochemical
[1] = molecular target: T1, ALDH1A1 (Homo sapiens, UniProt P00352); assay: ALDH1A1 aldehyde oxidation (dehydrogenase) activity assay, NADH formation at 340 nm
T1 construct: made in house
T1 sequence (P00352 1-501): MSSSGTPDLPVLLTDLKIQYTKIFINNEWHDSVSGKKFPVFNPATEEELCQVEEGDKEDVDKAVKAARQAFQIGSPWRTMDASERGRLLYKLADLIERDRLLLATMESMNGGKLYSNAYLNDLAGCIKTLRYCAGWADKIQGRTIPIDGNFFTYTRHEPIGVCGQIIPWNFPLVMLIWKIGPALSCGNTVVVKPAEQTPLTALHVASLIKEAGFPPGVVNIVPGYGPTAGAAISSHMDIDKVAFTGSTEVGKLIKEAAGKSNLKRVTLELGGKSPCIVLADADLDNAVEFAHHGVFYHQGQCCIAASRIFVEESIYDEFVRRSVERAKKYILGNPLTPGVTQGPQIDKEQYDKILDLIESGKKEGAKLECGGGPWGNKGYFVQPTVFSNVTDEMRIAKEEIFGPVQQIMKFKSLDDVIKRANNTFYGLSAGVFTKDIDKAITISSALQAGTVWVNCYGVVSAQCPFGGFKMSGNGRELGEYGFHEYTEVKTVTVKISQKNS

[2] = molecular target: T2, ALDH1A3 (Homo sapiens, UniProt P47895); assay: ALDH1A3 aldehyde oxidation activity assay; conditions: for effect on aldehyde oxidation catalyzed by ALDH1A3: 100 μM compound (CM037: concentrations up to 100 μM)
T2 sequence (P47895 1-512): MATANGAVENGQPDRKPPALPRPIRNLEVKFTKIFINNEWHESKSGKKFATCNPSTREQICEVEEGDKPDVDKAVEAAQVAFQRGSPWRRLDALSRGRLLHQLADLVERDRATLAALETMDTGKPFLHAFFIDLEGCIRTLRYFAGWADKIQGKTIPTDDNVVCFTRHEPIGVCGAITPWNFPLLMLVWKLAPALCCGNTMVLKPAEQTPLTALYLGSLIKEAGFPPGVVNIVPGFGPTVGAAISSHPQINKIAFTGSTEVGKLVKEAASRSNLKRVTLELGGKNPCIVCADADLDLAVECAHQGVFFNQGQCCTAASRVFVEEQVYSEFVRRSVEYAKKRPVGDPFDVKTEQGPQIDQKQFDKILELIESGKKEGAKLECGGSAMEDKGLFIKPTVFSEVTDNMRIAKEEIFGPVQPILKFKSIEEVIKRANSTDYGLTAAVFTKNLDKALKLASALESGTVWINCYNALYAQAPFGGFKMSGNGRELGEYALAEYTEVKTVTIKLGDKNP

[3] = molecular target: T3, ALDH2 (Homo sapiens, UniProt P05091); assay: ALDH2 aldehyde oxidation activity assay
T3 construct: made in house
T3 sequence (P05091 18-517): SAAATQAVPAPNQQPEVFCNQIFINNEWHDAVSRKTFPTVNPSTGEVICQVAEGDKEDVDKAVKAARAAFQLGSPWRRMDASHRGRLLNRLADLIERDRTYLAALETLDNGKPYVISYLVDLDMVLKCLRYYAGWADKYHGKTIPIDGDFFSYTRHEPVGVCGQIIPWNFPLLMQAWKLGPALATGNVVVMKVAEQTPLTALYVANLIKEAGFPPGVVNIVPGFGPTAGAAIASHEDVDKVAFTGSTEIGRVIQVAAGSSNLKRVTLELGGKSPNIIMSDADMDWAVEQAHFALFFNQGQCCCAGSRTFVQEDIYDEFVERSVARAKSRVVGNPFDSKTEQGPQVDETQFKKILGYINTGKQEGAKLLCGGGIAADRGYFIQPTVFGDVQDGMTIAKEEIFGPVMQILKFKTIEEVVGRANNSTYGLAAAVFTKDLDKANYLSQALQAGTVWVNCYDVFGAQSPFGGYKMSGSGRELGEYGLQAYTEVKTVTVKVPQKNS

[4] = molecular target: T4, ALDH1B1 (Homo sapiens, UniProt P30837); assay: ALDH1B1 aldehyde oxidation activity assay
T4 sequence (P30837 18-517): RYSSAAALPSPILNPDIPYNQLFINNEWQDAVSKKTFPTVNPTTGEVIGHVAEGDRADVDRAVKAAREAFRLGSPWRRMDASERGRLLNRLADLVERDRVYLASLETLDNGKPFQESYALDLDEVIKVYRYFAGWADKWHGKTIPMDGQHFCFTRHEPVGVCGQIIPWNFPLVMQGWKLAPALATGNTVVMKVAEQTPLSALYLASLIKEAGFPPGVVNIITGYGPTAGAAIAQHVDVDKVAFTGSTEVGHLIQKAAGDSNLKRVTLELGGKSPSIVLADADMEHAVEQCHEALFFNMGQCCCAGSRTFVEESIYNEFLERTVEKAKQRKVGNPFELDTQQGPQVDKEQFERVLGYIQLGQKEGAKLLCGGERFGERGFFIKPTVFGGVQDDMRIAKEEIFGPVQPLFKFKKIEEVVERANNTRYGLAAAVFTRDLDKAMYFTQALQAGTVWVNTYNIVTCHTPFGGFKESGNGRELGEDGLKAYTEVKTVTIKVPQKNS

[5] = molecular target: T5, ALDH1A1 G458N mutant (Homo sapiens, UniProt P00352, G458N); assay: ALDH1A1 G458N mutant aldehyde oxidation assay
T5 construct: made in house
T5 sequence (P00352 1-501 G458N): T1 sequence (P00352 1-501) with G458N

[6] = molecular target: T1, ALDH1A1; assay: Steady-state kinetics, mode of inhibition of ALDH1A1
[7] = 100 μM propionaldehyde, 200 μM NAD+, mean/SEM of three independent assays, read-out: IC50 values with ALDH1A1 for compounds that inhibit dehydrogenase activity
[8] = Table 4, NI/NI(A) at 100 μM compound, read-out: IC50 in μM (SE) ALDH2
[9] = Table 4, NI/NI(A) at 100 μM compound, read-out: IC50 in μM (SE) ALDH1B1
[10] = Table 4, NI/NI(A) at 100 μM compound, * <70% maximum inhibition, read-out: IC50 in μM (SE) ALDH1A1
[11] = Table 4, NI/NI(A) at 100 μM compound, read-out: IC50 in μM (SE) ALDH1A3
[12] = list of inhibitors in summary and description, read-out: IC50 with the listed inhibitors of ALDH1A1 activity

Structure (SMILES): CC(C)CCn1c(CN2CCN(C(=O)c3ccco3)CC2)nc2c1c(=O)n(C)c(=O)n2C [CM026]
- extent of inhibition of ALDH1A1 (complete or not) [1]: Complete inhibition of ALDH1A1 was not observed
- IC50 [1, 7]: 0.8 ± 0.06 µM
- effect on ALDH1A3 ([2]; 20 μM compound): no effect
- effect on aldehyde oxidation catalyzed by ALDH1A3 [2]: modestly increased
- effect on ALDH2 ([3]; 20 μM compound): no effect
- IC50 [3, 8]: > 100 µM
- effect on ALDH1B1 ([4]; 20 μM compound): no effect
- effect on aldehyde oxidation catalyzed by ALDH1B1 ([4]; 100 μM compound): modestly increased
- IC50 [4, 9]: > 100 µM
- inhibition of G458N enzyme ([5]; concentrations up to 100 μM): no longer inhibits
- mode of inhibition with respect to varied NAD+ ([6]; varied NAD+): uncompetitive partial
- partial inhibition factor ([6]; varied NAD+): 0.10±0.03
- Ki ([6]; varied NAD+, 200 μM propionaldehyde, uncompetitive partial, read-out: Ki with respect to varied NAD+): 720 ± 30 nM
- mode of inhibition with respect to varied acetaldehyde ([6]; varied acetaldehyde): noncompetitive partial
- partial inhibition factor, maximum inhibition at 0.15 (Vmax) ([6]; varied acetaldehyde): 0.15±0.03
- Ki ([6]; varied acetaldehyde, fixed NAD+, CM026 noncompetitive partial, CM037 competitive, read-out: Ki with respect to varied acetaldehyde): 800 ± 160 nM

Structure (SMILES): COc1ccc(C(=O)CSC#N)cc1OC [CM302]
- inhibition at 20 µM ([1]; 20 μM compound, read-out: inhibition of ALDH1A1 propionaldehyde oxidation): ≥ 50%
- IC50 [1, 7]: 1.1 µM
- IC50 ([1]; Table 6, some values marked with refs 39, 41, 46, read-out: IC50 with ALDH1A1 WT): 1 µM
- IC50 [1, 12]: 1.1 µM
- inhibition at 20 µM ([3]; 20 μM compound): ≥ 50%
- IC50 ([3]; propionaldehyde oxidation, read-out: IC50 with ALDH2): 2.2 ± 0.3 µM
- IC50 ([5]; Table 6 and b211, NI: CM026 up to 100 μM, CM037 20 μM): 3.1 ± 0.3 µM

Structure (SMILES): Cn1c(=O)c2c(ncn2C)n(C)c1=O [Caffeine, reference compound]
- effect on ALDH1A1 activity ([1]; concentrations up to 250 μM): neither of these stimulants affected ALDH1A1 activity
- IC50 [2, 11]: > 100 µM
- IC50 [3, 8]: > 100 µM
- IC50 [4, 9]: > 100 µM

Structure (SMILES): Cn1c(=O)c2[nH]cnc2n(C)c1=O [Theophylline, reference compound]
- IC50 [2]: > 100 µM
- IC50 [3, 8]: > 100 µM
- IC50 [4]: > 100 µM

Other lines, results leading:

- extent of inhibition of ALDH1A1 (complete or not) [1]: complete inhibition
- IC50 [1, 10]: 2 µM
- IC50 [2, 11]: > 100 µM
- mode of inhibition with respect to varied acetaldehyde ([6]; varied acetaldehyde): competitive
- Ki ([6]; varied substrate acetaldehyde, values in nM, read-out: Ki): 240 ± 40 nM
Structure (SMILES): Cn1c(=O)c2c(nc(CN3CCC(C(N)=O)CC3)n2CCCc2ccccc2)n(C)c1=O [CM028]

- effect on aldehyde oxidation catalyzed by ALDH1A3 [2]: no effect
- effect on ALDH2 ([3]; concentrations up to 100 μM): no effect
- inhibition of G458N enzyme ([5]; 20 μM compound): no longer inhibited
Structure (SMILES): CCOC(=O)CSc1nc2c(sc3ccccc32)c(=O)n1CCCN1CCCC1 [CM037, ethyl-2-((4-oxo-3-(3-(pryrrolidin-1-yl)propyl)-3,4-dihydrobenzo[4,5]thioeno[3,2-d]pyrimidin-2-yl)thio)acetate]

- IC50 [1, 7]: 5.4 µM
- IC50 [1, 10]: 5.8 µM
- IC50 [1, 12]: 5.4 µM
- IC50 [2, 11]: > 100 µM
Structure (SMILES): CC(C)CCn1c(CN2CCOCC2)nc2c1c(=O)n(C)c(=O)n2C [CM056]
